Activity calls are given as the source filed them. No cut-off for these calls is given here.
Experiments:
[1] = Cytotoxicity against human GES1 cells after 72 hrs by MTT assay; format: toxicity, cell-based
[2] = tested on: MDA-MB-231; assay: Antiproliferative activity against human MDA-MB-231 cells highly expressing AXL after 72 hrs by MTT assay; conditions: MDA-MB-231, 72 h
[3] = tested on: 4T1; assay: Antiproliferative activity against mouse 4T1 cells highly expressing AXL after 72 hrs by MTT assay; conditions: 4T1, 72 h
[4] = Cytotoxicity against human MCF-10A cells after 72 hrs by MTT assay; format: toxicity, cell-based
[5] = target: T1, Tyrosine-protein kinase receptor UFO (Homo sapiens, UniProt P30530); assay: Inhibition of AXL (unknown origin) measured by FRET assay
T1 sequence (P30530 whole entry): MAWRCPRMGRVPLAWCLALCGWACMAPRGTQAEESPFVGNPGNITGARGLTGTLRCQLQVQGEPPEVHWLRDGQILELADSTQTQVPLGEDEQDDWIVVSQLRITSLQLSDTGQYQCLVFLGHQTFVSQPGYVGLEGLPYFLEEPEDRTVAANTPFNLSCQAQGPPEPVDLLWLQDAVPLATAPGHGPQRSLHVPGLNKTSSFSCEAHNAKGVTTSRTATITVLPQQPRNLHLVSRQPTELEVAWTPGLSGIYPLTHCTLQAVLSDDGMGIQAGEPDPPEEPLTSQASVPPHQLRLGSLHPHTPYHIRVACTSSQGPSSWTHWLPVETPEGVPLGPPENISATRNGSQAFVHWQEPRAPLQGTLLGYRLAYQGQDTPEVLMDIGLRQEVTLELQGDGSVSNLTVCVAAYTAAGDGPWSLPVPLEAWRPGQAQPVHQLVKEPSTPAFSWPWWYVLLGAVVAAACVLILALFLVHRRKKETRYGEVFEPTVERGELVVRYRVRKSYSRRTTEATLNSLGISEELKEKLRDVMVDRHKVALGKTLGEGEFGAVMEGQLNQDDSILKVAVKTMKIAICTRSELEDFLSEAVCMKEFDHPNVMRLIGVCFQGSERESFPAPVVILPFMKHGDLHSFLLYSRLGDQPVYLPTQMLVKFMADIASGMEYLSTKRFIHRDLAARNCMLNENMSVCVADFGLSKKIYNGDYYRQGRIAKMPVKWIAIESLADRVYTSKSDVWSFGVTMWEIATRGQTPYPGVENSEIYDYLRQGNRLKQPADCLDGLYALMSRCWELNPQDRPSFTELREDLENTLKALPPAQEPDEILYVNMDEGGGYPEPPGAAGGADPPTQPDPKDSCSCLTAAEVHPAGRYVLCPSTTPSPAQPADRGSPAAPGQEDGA

[6] = Systemic toxicity in female BALB/c nude mouse xenografted with human MDA-MB-231 cells assessed as necrosis of liver tissue at 25 mg/kg, ip; format: organism-based; conditions: in vivo
[7] = tested on: MDA-MB-231; assay: Antitumor activity against human MDA-MB-231 cells xenografted in female BALB/c nude mouse assessed as tumor growth inhibition at 25 mg/kg, ip; format: functional, organism-based
[8] = Toxicity in female BALB/c nude mouse xenografted with human MDA-MB-231 cells assessed as change in body wieght at 25 mg/kg, ip; format: organism-based; conditions: in vivo
[9] = Systemic toxicity in female BALB/c nude mouse xenografted with human MDA-MB-231 cells assessed as inflammatory cell infiltration in liver at 25 mg/kg, ip; format: organism-based; conditions: in vivo
[10] = Systemic toxicity in female BALB/c nude mouse xenografted with human MDA-MB-231 cells assessed as necrosis of kidney tissue at 25 mg/kg, ip; format: organism-based; conditions: in vivo
[11] = Systemic toxicity in female BALB/c nude mouse xenografted with human MDA-MB-231 cells assessed as inflammatory cell infiltration in heart at 25 mg/kg, ip; format: organism-based; conditions: in vivo
[12] = Systemic toxicity in female BALB/c nude mouse xenografted with human MDA-MB-231 cells assessed as inflammatory cell infiltration in spleen at 25 mg/kg, ip; format: organism-based; conditions: in vivo
[13] = Systemic toxicity in female BALB/c nude mouse xenografted with human MDA-MB-231 cells assessed as necrosis of lung tissue at 25 mg/kg, ip; format: organism-based; conditions: in vivo
[14] = Systemic toxicity in female BALB/c nude mouse xenografted with human MDA-MB-231 cells assessed as inflammatory cell infiltration in lung at 25 mg/kg, ip; format: organism-based; conditions: in vivo
[15] = Systemic toxicity in female BALB/c nude mouse xenografted with human MDA-MB-231 cells assessed as necrosis of spleen tissue at 25 mg/kg, ip; format: organism-based; conditions: in vivo
[16] = Systemic toxicity in female BALB/c nude mouse xenografted with human MDA-MB-231 cells assessed as necrosis of heart tissue at 25 mg/kg, ip; format: organism-based; conditions: in vivo
[17] = Systemic toxicity in female BALB/c nude mouse xenografted with human MDA-MB-231 cells assessed as inflammatory cell infiltration in kidney at 25 mg/kg, ip; format: organism-based; conditions: in vivo

Structure (SMILES) | IC50 at 72 h [1] [µM] | IC50 [2] [µM] | IC50 [3] [µM] | IC50 at 72 h [4] [µM] | other results
Nc1nc(Nc2ccc(CNC(=O)CCCCNc3cccc4c3CN(C3CCC(=O)NC3=O)C4=O)cc2)nn1-c1cc2c(nn1)-c1ccccc1CCC2 (stereo not drawn) | > 60 | 39.1 | 41.3 | > 60 | –
Nc1nc(Nc2ccc(CNC(=O)CCCCNc3cccc4c3CN(C3CCC(=O)NC3=O)C4=O)cc2)nn1-c1ccc(-c2ccccc2)nn1 (stereo not drawn) | > 60 | 35.7 | 54.2 | > 60 | –
Nc1nc(NCCNC(=O)CCCCCNc2cccc3c2CN(C2CCC(=O)NC2=O)C3=O)nn1-c1cc2c(nn1)-c1ccccc1CCC2 (stereo not drawn) | > 60 | > 60 | 37.5 | > 60 | –
Nc1nc(NCCNC(=O)CCCCNc2cccc3c2CN(C2CCC(=O)NC2=O)C3=O)nn1-c1cc2c(nn1)-c1ccccc1CCC2 (stereo not drawn) | > 60 | 36.2 | 7.05 | > 60 | –
Nc1nc(Nc2ccc(CNC(=O)CCCCCCNc3cccc4c3CN(C3CCC(=O)NC3=O)C4=O)cc2)nn1-c1ccc(-c2ccccc2)nn1 (stereo not drawn) | > 60 | 28.5 | 24.6 | > 60 | –
Nc1nc(Nc2ccc(CNC(=O)CCCCCNc3cccc4c3CN(C3CCC(=O)NC3=O)C4=O)cc2)nn1-c1cc2c(nn1)-c1ccccc1CCC2 (stereo not drawn) | > 60 | 32.8 | 29.6 | > 60 | –
Nc1nc(NCCNC(=O)CCCCNc2cccc3c2CN(C2CCC(=O)NC2=O)C3=O)nn1-c1ccc(-c2ccccc2)nn1 (stereo not drawn) | > 60 | 52.2 | > 60 | > 60 | –
Nc1nc(NCCNC(=O)CCCCCNc2cccc3c2CN(C2CCC(=O)NC2=O)C3=O)nn1-c1ccc(-c2ccccc2)nn1 (stereo not drawn) | > 60 | 31.7 | 27.9 | > 60 | –
Nc1nc(NCCNC(=O)CCCNc2cccc3c2CN(C2CCC(=O)NC2=O)C3=O)nn1-c1ccc(-c2ccccc2)nn1 (stereo not drawn) | > 60 | > 60 | > 60 | > 60 | IC50 [5]: > 60 µM
Nc1nc(Nc2ccc3c(c2)CC[C@@H](N2CCCC2)CC3)nn1-c1cc2c(nn1)-c1ccccc1CCC2 [BEMCENTINIB] | > 60 | 2.84 | 0.94 | > 60 | Activity [6]: Non-Toxic; TGI [7]: Active; Activity [8]: Non-Toxic; Activity [9]: Non-Toxic; Activity [10]: Non-Toxic; Activity [11]: Non-Toxic; Activity [12]: Non-Toxic; Activity [13]: Non-Toxic; Activity [14]: Non-Toxic; Activity [15]: Non-Toxic; Activity [16]: Non-Toxic; Activity [17]: Non-Toxic

From ChEMBL document CHEMBL5154798, “Structure-based discovery of receptor tyrosine kinase AXL degraders with excellent anti-tumor activity by selectively degrading AXL and inducing methuosis” (Eur J Med Chem, 2022)
